pIC50: −log10 of the molar value. Where two headings read alike, the source gives them in different places. Where a SMILES comes first, the peptide text is derived from it. Where no end group is shown, it is not given here.
Tests used:
HLA-DRB1*0401 = HLA-DRB1*0401 (Homo sapiens, UniProt P01903+P01911, A100K/A169T/F76Y/I96L/K127E/L162R/M171V/N62H/P40V/Q125Y/R42H/S133A/S149N/S66Y/V115G/V209L/W38E); test: solid-state competitive-binding assay, purified HLA-DR4
CD4+ T cells [1] = test: IFN-γ ELISPOT, freshly-isolated peripheral blood CD4+ T cells vs peptide-pulsed T2.DR4; format: cell-based, human; conditions: positive if above normal donor mean + 3 S.D.; for T cell responses evaluated in MEL (of 5): number of responding patients: HLA-DR4+ melanoma patients with active disease, n = 5, 20 h IFN-γ ELISPOT; for T cell responses evaluated in MEL-NED (of 11): number of responding patients: HLA-DR4+ melanoma patients with no evidence of disease, n = 11, 20 h IFN-γ ELISPOT
CD4+ T cells [2] = test: IFN-γ ELISPOT, normal donor CD4+ T cells after in vitro stimulation with peptide-pulsed autologous DC; format: cell-based, human; conditions: for T cell responses evaluated in ND-IVS (of 10): number of responding normal donors: normal HLA-DR4+ donors, n = 10, after 2 rounds of in vitro stimulation with autologous DC pulsed with peptide, IFN-γ ELISPOT
HLA-DRB1*0404 = HLA-DRB1*0404 (Homo sapiens, UniProt P01903+P01911, A100R/A169T/F76Y/I96L/K127E/L162R/M171V/N62H/P40V/Q125Y/R42H/S133A/S149N/S66Y/V209L/W38E); test: solid-state competitive-binding assay, purified HLA-DR4
[3] = read-out: Binding affinity (IC50) DRB1*0401
[4] = read-out: Binding affinity (IC50) DRB1*0404

Compound | pIC50 (HLA-DRB1*0401; [3]) | T cell responses evaluated in MEL (of 5): number of responding patients (CD4+ T cells [1]) | T cell responses evaluated in MEL-NED (of 11): number of responding patients (CD4+ T cells [1]) | T cell responses evaluated in ND-IVS (of 10): number of responding normal donors (CD4+ T cells [2]) | also measured
CC[C@H](C)[C@H](NC(=O)[C@H](CCC(N)=O)NC(=O)[C@H](Cc1c[nH]cn1)NC(=O)[C@H](CC(C)C)NC(=O)[C@@H](NC(=O)[C@H](CC(C)C)NC(=O)[C@H](CCC(N)=O)NC(=O)[C@H](CS)NC(=O)[C@H](C)NC(=O)[C@@H]1CCCN1C(=O)[C@H](CO)NC(=O)[C@@H]1CCCN1C(=O)[C@H](CC(C)C)NC(=O)[C@@H](NC(=O)[C@@H]1CCCN1C(=O)[C@H](CCC(N)=O)NC(=O)[C@H](CS)NC(=O)[C@@H](N)CC(C)C)C(C)C)C(C)C)C(=O)N[C@@H](CC(C)C)C(=O)N[C@@H](CCCCN)C(=O)NCC(=O)NCC(=O)O [gp100/pmel17540-561] (H-LCQPVLPSPACQLVLHQILKGG-OH) | < 5.00 |  |  |  | 
CC(C)[C@H](NC(=O)[C@H](CO)NC(=O)[C@@H]1CCCN1C(=O)[C@@H](N)Cc1c[nH]c2ccccc12)C(=O)N[C@@H](Cc1ccccc1)C(=O)N[C@@H](Cc1ccc(O)cc1)C(=O)N[C@@H](CC(N)=O)C(=O)N[C@@H](CCCNC(=N)N)C(=O)N[C@H](C(=O)N[C@@H](CS)C(=O)N[C@@H](CCC(N)=O)C(=O)N[C@@H](CS)C(=O)N[C@@H](CO)C(=O)NCC(=O)N[C@@H](CC(N)=O)C(=O)N[C@@H](Cc1ccccc1)C(=O)O)[C@@H](C)O [tyrosinase80-95] (H-WPSVFYNRTCQCSGNF-OH; N-terminus and C-terminus assumed) |  | 0 patients (of 5) | 0 patients (of 11) | 0 donors (of 10) | 
ALHIYMDGTMSQVQGSA [tyrosinase365-381D] |  |  |  |  | pIC50 (HLA-DRB1*0401): 7.77; pIC50 (HLA-DRB1*0404): 7.51
IVGILLVLMAVVLASLIYRRR [gp100599-619 /pmel17606-626] | < 5.00 | 0 patients (of 5) | 0 patients (of 11) | 0 donors (of 10) | pIC50 (HLA-DRB1*0404; [4]): < 5.00
KRCLLHLAVIGALLAVGATKV [gp100/pmel176-26] | < 5.00 |  |  |  | 
PGPVTAQVVLQAAIPLTSCGSS [gp100/pmel17283-304] |  |  |  |  | pIC50 (HLA-DRB1*0404; [4]): 7.29
VSGLSIGTGRAMLGTHTMEVTVY [gp100/pmel17167-189] | < 5.00 |  |  |  | 
VYVWKTWGQYWQVLGGPVS [gp100/pmel17150-168] |  | 0 patients (of 5) | 0 patients (of 11) | 0 donors (of 10) | pIC50 (HLA-DRB1*0401): < 5.00; pIC50 (HLA-DRB1*0404): < 5.00
WMHYYVSMDALLGGSEI [tyrosinase178-194, synthetic peptide derived from tyrosinase] |  | 1 patients (of 5) | 1 patients (of 11) | 3 donors (of 10) | immunogen grade on an arbitrary scale (CD4+ T cells [2]; in both melanoma patients and in vitro stimulated normal donors, weak / moderate / strong): moderate

— publication PMC2363969, “gp100/pmel17 and tyrosinase encode multiple epitopes recognized by Th1-type CD4+T cells” (British Journal of Cancer, 2001)
